Like-named read-outs stand apart in the source and are kept apart here.
How the values were obtained:
[1] = target: T1, STAT3 (Mus musculus, UniProt P42227); assay: Inhibition of STAT3 dimerization, EMSA assay; format: binding; parameters: endogenous in cells; host or cells: nuclear extracts per the general EMSA method
[2] = target: T1, STAT3; assay: Inhibition of STAT3 dimerization, EMSA assay; format: binding; parameters: nuclear extracts were pre-incubated with compound for 30 minutes at room temperature prior to incubation with the radiolabeled probe; endogenous in cells; host or cells: nuclear extracts per the general EMSA method
[3] = target: Stat3 (Homo sapiens, UniProt P40763); details: 10, 30, and 100 μM pre-incubation
Description: Values are the mean and S.D. of eight tumor-bearing mice each.

[4] = test system: pTyr705 Stat3 in NIH3T3/v-Src fibroblasts; details: 100 μM, 24-hour treatment
[5] = target: FLAG-ST3:Stat3-YFP complex (Homo sapiens, UniProt P40763); details: NIH3T3/v-Src, 24 hours
[6] = test system: NIH3T3; assay: Apoptosis by Annexin V binding and Flow Cytometry; format: cell-based, mouse
Experimental: (§1) In some cases, cells were first transfected with Stat3C, ST3-NT, or ST3-SH2 domain or mock-transfected for 24 hours prior to treatment with compound for an additional 24-48 hours. Cells were then detached and analyzed by Annexin V binding (BD Biosciences, San Diego) according to the manufacturer's protocol and Flow Cytometry to quantify the percent apoptosis.

[7] = test system: NIH3T3/v-Src; assay: Apoptosis by Annexin V binding and Flow Cytometry; format: cell-based, mouse
Experimental: . In FIG. 4B, human breast carcinoma MDA-MB-231 cells were transfected with pcDNA3 (mock), Stat3C or untransfected (Non), or the v-Src transformed mouse fibroblasts (NIH3T3/v-Src) were transfected with pcDNA3 (mock), N-terminus of Stat3 (ST3-NT) or the Stat3 SH2 domain (ST3-SH2) for […]. […]. Values are the mean and S.D. of six independent determinations. Western blot data are representative of 3 independent analyses.
as §1

[8] = test system: Cyclin D1, Bcl-xL and Survivin in MDA-MB-231; assay: Immunoblot of Stat3-regulated gene products; format: cell-based, human; details: 100, 48 hours
[9] = test system: constitutively-active Stat3 in NIH3T3/v-Src fibroblasts; details: 100 μM, by 24 hours
Experimental: (§6) To investigate non-specific effects, SDS-PAGE and Western blot analysis was performed on whole-cell lysates from mouse fibroblasts transformed by v-Src (NIH3T3/v-Src) or overexpressing the human EGFR (NIH3T3/hEGFR) and stimulated by EGF to determine the ability to inhibit other signaling proteins.

[10] = test system: NIH3T3; assay: Viable cell number by trypan blue exclusion; format: cell-based, mouse; details: 100 μM, four days
Description: (§2) […]. Values are the mean and S.D. of 3-4 independent determinations.
(§3) . The present inventors next determined whether this Stat3 activity inhibitor is able to inhibit the anchorage-dependent and -independent (transformation) growth of human and mouse cancer cell lines and whether this inhibition is dependent on the presence of persistently-active Stat3. […]. […]

[11] = test system: NIH3T3/v-Src; assay: Viable cell number by trypan blue exclusion; format: cell-based, mouse; details: 100 μM, four days
Description: as §2, §3

[12] = test system: Stat3-independent luciferase reporter pLucSRE; details: 100 μM, 24 hours
[13] = test system: MDA-MB-435; assay: Apoptosis by Annexin V binding and Flow Cytometry; format: cell-based, human
Experimental: as §1

[14] = test system: MDA-MB-453; assay: Apoptosis by Annexin V binding and Flow Cytometry; format: cell-based, human; details: 100 μM or less, 48 hours
Experimental: as §1

[15] = test system: pShc, pErk1/2, pSrc, pTyr profile in NIH3T3/v-Src or EGF-stimulated NIH3T3/hEGFR; assay: Western blot for other signaling proteins; format: cell-based, mouse
[16] = test system: NIH3T3/v-Src; assay: Soft-agar colony formation assay; format: cell-based, mouse; details: 100 μM every 3 days
Experimental: (§4) Briefly, each well contained 1.5 ml of 1% agarose in Dulbeco's modified Eagle's medium as the bottom layer and 1.5 ml of 0.5% agarose in Dulbeco's modified Eagle's medium containing 4000 or 6000 NIH3T3/v-Src or NIH3T3/v-Ras fibroblasts, respectively, as the top layer. […]. Colonies were quantified by staining with 20 μl of 1 mg/ml iodonitrotetrazolium violet, incubating at 37° C. overnight, and counting the next day.

[17] = test system: NIH3T3/v-Ras; assay: Soft-agar colony formation assay; format: cell-based, mouse; details: 100 μM every 3 days
Experimental: as §4

[18] = test system: human breast (MDA-MB-231) tumor; assay: Human breast tumor xenografts in athymic nude mice; format: in vivo, mouse
[19] = test system: MDA-MB-231; assay: Apoptosis by Annexin V binding and Flow Cytometry; format: cell-based, human; details: untransfected or mock-transfected cells; 100 μM
Experimental: (§5) […]; Turkson, J. et al. Mol. Cell.
as §1
[…]. To this end, the breast carcinoma MDA-MB-231 cells that harbor activated Stat3 were transiently transfected with Stat3C and evaluated for apoptosis. […] […]. There is increased in the background level of cell death, which could be due to the effects of transfection. […].

[20] = test system: Stat5:5; assay: STATs DNA-binding activity in vitro, EMSA with MGFe probe; parameters: species or system mouse
[21] = test system: constitutively-active Stat3 in MDA-MB-231, MDA-MB-435 and MDA-MB-468 cells; details: 100 μM; by 24 hours in text, 48 hours in FIG. 2E legend
Experimental: as §6

[22] = test system: β-Casein promoter-driven Luc; assay: Luciferase reporter assay, v-Src co-transfected NIH3T3; format: cell-based, mouse; details: 100 μM, 24 hours
Description: as §5
[…]. […] […].

[23] = test system: Cyclin D1, Bcl-xL and Survivin in NIH3T3/v-Src; assay: Immunoblot of Stat3-regulated gene products; format: cell-based, mouse; details: 100, 48 hours
[24] = test system: MDA-MB-231, MDA-MB-435 and MDA-MB-468; assay: Viable cell number by trypan blue exclusion; format: cell-based, human; details: 100 μM, four days
Description: as §2, §3

[25] = test system: MDA-MB-453; assay: Viable cell number by trypan blue exclusion; format: cell-based, human; details: 100 μM, four days
Description: as §2, §3

[26] = test system: Stat3-dependent luciferase reporter pLucTKS3; details: dose-dependent manner

T1 sequence (P42227 2-770 limits assumed): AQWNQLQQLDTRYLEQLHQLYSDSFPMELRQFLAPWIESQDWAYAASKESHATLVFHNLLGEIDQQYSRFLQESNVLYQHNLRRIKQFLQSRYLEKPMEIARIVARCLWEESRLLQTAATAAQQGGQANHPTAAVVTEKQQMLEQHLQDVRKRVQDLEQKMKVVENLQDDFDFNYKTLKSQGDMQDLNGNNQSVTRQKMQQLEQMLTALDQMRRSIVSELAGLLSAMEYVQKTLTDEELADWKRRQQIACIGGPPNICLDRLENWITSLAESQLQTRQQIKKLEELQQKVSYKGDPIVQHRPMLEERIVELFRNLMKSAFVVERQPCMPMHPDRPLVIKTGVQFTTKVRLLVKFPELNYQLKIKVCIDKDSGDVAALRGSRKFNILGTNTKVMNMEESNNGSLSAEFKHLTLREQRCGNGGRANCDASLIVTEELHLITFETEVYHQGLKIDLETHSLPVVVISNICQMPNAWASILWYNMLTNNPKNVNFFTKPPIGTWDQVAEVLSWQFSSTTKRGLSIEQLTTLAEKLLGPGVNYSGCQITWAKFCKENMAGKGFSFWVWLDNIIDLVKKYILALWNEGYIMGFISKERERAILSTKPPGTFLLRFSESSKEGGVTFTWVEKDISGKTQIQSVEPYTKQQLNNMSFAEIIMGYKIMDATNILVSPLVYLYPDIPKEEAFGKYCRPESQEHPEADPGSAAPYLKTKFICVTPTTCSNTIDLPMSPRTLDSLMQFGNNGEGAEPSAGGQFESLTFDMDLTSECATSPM
Sequence of FLAG-ST3:Stat3-YFP complex (P40763 whole entry, one chain of several): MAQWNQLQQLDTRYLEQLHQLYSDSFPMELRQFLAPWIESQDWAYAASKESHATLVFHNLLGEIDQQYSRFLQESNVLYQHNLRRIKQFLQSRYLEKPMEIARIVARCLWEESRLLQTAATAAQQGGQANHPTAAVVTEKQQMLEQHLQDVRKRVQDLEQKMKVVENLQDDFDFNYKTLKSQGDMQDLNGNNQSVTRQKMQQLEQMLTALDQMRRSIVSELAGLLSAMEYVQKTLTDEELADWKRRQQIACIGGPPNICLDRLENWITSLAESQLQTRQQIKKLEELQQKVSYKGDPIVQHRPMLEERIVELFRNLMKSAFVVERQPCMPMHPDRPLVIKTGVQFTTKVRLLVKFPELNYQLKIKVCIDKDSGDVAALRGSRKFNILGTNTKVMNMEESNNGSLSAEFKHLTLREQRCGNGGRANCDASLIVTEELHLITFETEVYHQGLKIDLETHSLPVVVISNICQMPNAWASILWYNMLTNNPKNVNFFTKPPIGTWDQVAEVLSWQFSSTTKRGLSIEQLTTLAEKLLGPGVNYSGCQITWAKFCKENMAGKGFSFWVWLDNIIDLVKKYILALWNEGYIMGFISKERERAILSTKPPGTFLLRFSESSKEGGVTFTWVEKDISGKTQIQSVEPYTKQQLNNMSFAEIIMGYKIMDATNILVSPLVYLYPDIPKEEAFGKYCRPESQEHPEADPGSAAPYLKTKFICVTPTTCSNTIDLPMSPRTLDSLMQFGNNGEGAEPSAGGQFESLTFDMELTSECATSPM
Sequence of Stat3 (P40763 2-770 limits assumed): as the sequence (P42227 2-770 limits assumed) above, with D759E counted along it

O=C(CC(CNS(=O)(=O)c1ccc(Oc2ccccc2)cc1)c1ccc2ccccc2c1)Nc1ccc(C(=O)O)cc1 (centres unmarked) [Compound 61, 4-(3-(naphthalen-2-yl)-4-(4-phenoxyphenylsulfonamido)butanamido)benzoic acid]
melting point: 183 to 184 °C

O=C(CC(CNS(=O)(=O)c1ccc(Oc2ccccc2)cc1)c1ccccc1)Nc1ccc(C(=O)O)cc1 (centres unmarked) [Compound 60, 4-(4-(4-phenoxyphenylsulfonamido)-3-phenylbutanamido)benzoic acid]
melting point: 187 to 189 °C
IC50 [1]: > 500 µM

CCOC(=O)c1ccc(NC(=O)CCc2ccccc2)cc1 [Compound 70, Ethyl 4-(3-phenylpropanamido)benzoate]
melting point: 109 to 111 °C
IC50 [1]: > 500 µM

O=C(CCc1ccc2ccccc2c1)Nc1ccc(C(=O)O)cc1 [Compound 71, 4-(3-(Naphthalen-2-yl)propanamido)benzoic acid]
melting point: 255 to 257 °C
IC50 [1]: > 500 µM

CCOC(=O)c1ccc(NC(=O)CC(CNS(=O)(=O)c2ccc(Oc3ccccc3)cc2)c2ccc3ccccc3c2)cc1 (centres unmarked) [Compound 58, Ethyl 4-(3-(naphthalen-2-yl)-4-(4-phenoxyphenylsulfonamido)butanamido)benzoate]
melting point: 141 to 143 °C

O=C(COS(=O)(=O)c1ccc(-c2ccccc2)cc1)Nc1ccc(C(=O)O)c(O)c1 [Compound 19]
IC50 [2]: > 500 µM

Cc1ccc(S(=O)(=O)OCC(=O)Nc2ccc(C(=O)O)c(O)c2)cc1 [Compound S3I-201, 2-Hydroxy-4-(2-(tosyloxy)acetamido)benzoic acid]
Stat3 activity in control tumor tissue lysates [3]: dose-dependent abrogation
pTyr705 Stat3 levels [4]: significantly diminished
total Stat3 protein level [4]: remained unchanged
FLAG-ST3 protein in the Stat3-YFP immunoprecipitates [5]: no detectable level
Stat3-YFP in the FLAG-ST3 immunoprecipitates [5]: significantly reduced
sensitivity to apoptosis induction ([6]; 100 μM or less, 48 hours): less sensitive
cytotoxicity ([6]; 300 μM or higher, independent of Stat3 activation status): general, non-specific cytotoxicity
apoptosis ([7]; 30-100, 48 hours): significant apoptosis
apoptosis ([7]; cells overexpressing the ST3-NT region): strong induction of apoptosis
apoptosis ([7]; mock-transfected cells): strongly induced
apoptosis ([7]; overexpression of the Stat3-SH2 domain): diminished the apoptotic effects
expression of the Cyclin D1, Bcl-xL and Survivin proteins [8]: significant reduction in expression
constitutive Stat3 activation [9]: significantly inhibited
growth and viability [10]: not significantly altered
viable cell numbers and growth [11]: significantly reduced viable cell numbers and inhibited growth
v-Src-mediated induction of pLucSRE [12]: not affected
sensitivity to apoptosis induction ([13]; 30 μM): more sensitive
apoptosis ([13]; 30-100, 48 hours): significant apoptosis
sensitivity to apoptosis induction [14]: less sensitive
phosphorylation of Shc (pShc), Erk1/2 (pErk1/2), or Src (pSrc) ([15]; 100 μM, 24 hours): no significant effect
total Erk1/2 protein levels ([15]; 24 hours): unchanged
pTyr profile, anti-pTyr antibody 4G10 clone ([15]; NIH3T3/v-Src, 24-hour treatment): no significant changes
growth in soft-agar suspension [16]: significantly inhibited
soft-agar growth [17]: unaffected
tumor growth compared to control (vehicle-treated) tumors ([18]; 5 mg/kg i.v. every 2 or every 3 days for two weeks): strong growth inhibition
tumor growth upon termination of treatment ([18]; data not shown): no resumption of tumor growth
total Stat3 protein in residual tumor tissue ([18]; treated mice T1 and T2): remained unchanged
pTyr Stat3 (pYStat3) in residual tumor tissue ([18]; treated mice T1 and T2 compared to control): minimal to no detection
Stat3 DNA binding activity in residual tumor tissue (EMSA) ([18]; treated mice T1 and T2 compared to control tumor): strong inhibition
apoptosis [19]: 50-80%
preference for Stat3 over Stat5 (less potency for Stat5) ([20]; DNA-binding activity): 2 fold
IC50 ([20]; Table 4, listed as 74859, read-out: IC50 values for the inhibition of STATs DNA-binding activity in vitro, Stat5:5): 166 µM
constitutive Stat3 activation [21]: significantly inhibited
v-Src-mediated induction of β-Casein promoter Luc [22]: not affected
expression of the Cyclin D1, Bcl-xL and Survivin proteins [23]: significant reduction in expression
viable cell numbers and growth [24]: significantly reduced viable cell numbers and inhibited growth
growth and viability [25]: not significantly altered
v-Src-mediated pLucTKS3 induction [26]: significantly inhibited

O=C(CNS(=O)(=O)c1ccc(-c2ccccc2)cc1)Nc1ccc(C(=O)O)c(O)c1 [Compound 21]
IC50 [2]: > 500 µM

CCOC(=O)c1ccc(NC(=O)CC(CNS(=O)(=O)c2ccc(C)cc2)c2ccc(Cl)cc2)cc1 (centres unmarked) [Compound 38, Ethyl 4-(3-(4-chlorophenyl)-4-(4-methylphenylsulfonamido)butanamido)benzoate]
melting point: 187 to 189 °C

CCOC(=O)c1ccc(NC(=O)CC(CNS(=O)(=O)c2ccc(Oc3ccccc3)cc2)c2ccccc2)cc1 (centres unmarked) [Compound 56, Ethyl 4-(4-(4-phenoxyphenylsulfonamido)-3-phenylbutanamido)benzoate]
melting point: 147 to 149 °C

CCOC(=O)c1ccc(NC(=O)CC(CNS(=O)(=O)c2ccc(Oc3ccccc3)cc2)c2ccc(Cl)cc2)cc1 (centres unmarked) [Compound 37]
IC50 [2]: > 500 µM

O=C(CC(CNS(=O)(=O)c1ccc(Oc2ccccc2)cc1)c1ccc2ccccc2c1)Nc1ccc(C(=O)O)c(O)c1 (centres unmarked) [Compound 65, 2-hydroxy-4-(3-(naphthalen-2-yl)-4-(4-phenoxyphenylsulfonamido)butanamido)benzoic acid]
melting point: 153 to 155 °C
IC50 [1]: > 500 µM
